Measurements from ChEMBL document CHEMBL5352466, “New bioisosteric sulphur-containing choline kinase inhibitors with a tracked mode of action” (Eur J Med Chem, 2023).
Activity calls are given as the source filed them. The rule behind the calls is not given here.

How the values were obtained:
Choline kinase alpha = Choline kinase alpha (Homo sapiens, UniProt P35790); test: Inhibition of human Choline kinase alpha 1 incubated for 10 mins by liquid-scintillation counter analysis
A549 [1] = test: Antiproliferative activity against human A549 cells assessed as inhibition of cell growth incubated for 72 hrs; assay type: functional
HeLa [2] = test: Antiproliferative activity against human HeLa cells assessed as inhibition of cell growth incubated for 72 hrs; assay type: functional
HT-29 = test: Antiproliferative activity against human HT-29 cells assessed as inhibition of cell growth incubated for 72 hrs; assay type: functional
MDA-MB-231 = test: Antiproliferative activity against human MDA-MB-231 cells assessed as inhibition of cell growth incubated for 72 hrs; assay type: functional
MCF7 = test: Antiproliferative activity against human MCF7 cells assessed as inhibition of cell growth incubated for 72 hrs; assay type: functional
[3] = Antiproliferative activity against human Astrocyte cells assessed as inhibition of cell growth incubated for 72 hrs by resazurin dye based assay; assay type: toxicity
A549 [4] = test: Induction of cell cycle arrest in human A549 cells at 1 to 5 uM incubated for 24 hrs by PI staining based flow cytometry analysis; assay type: functional; conditions: dose 1-5 µM
HeLa [5] = test: Induction of cell cycle arrest in human HeLa cells at 1 to 5 uM incubated for 24 hrs by PI staining based flow cytometry analysis; assay type: functional; conditions: dose 1-5 µM
HeLa [6] = test: Induction of cell cycle arrest in human HeLa cells assessed as accumulation of cells at G1 phase at 1 to 5 uM incubated for 24 hrs by PI staining based flow cytometry analysis; assay type: functional; conditions: dose 1-5 µM
HeLa [7] = test: Induction of apoptosis in human HeLa cells at 1 to 5 uM by Annexin V/propidium iodide staining based flow cytometry analysis; assay type: functional, cell-based; conditions: dose 1-5 µM, time 48-72 hrs, TDE = time-dependent effect
HeLa [8] = test: Induction of apoptosis in human HeLa cells measured for 48 to 72 hrs by Annexin V/propidium iodide staining based flow cytometry analysis; assay type: functional, cell-based; conditions: dose 1-5 µM, time 48-72 hrs
HeLa [9] = test: Induction of apoptosis in human HeLa cells at 1 to 5 uM measured for 72 hrs by Annexin V/propidium iodide staining based flow cytometry analysis; assay type: functional, cell-based; conditions: dose 1-5 µM
A549 [10] = test: Induction of apoptosis in human A549 cells at 5 uM measured for 72 hrs in presence of Z-VAD-fmk by Annexin V/propidium iodide staining based flow cytometry analysis; assay type: functional, cell-based
HeLa [11] = test: Induction of apoptosis in human HeLa cells at 5 uM measured for 72 hrs in presence of Z-VAD-fmk by Annexin V/propidium iodide staining based flow cytometry analysis; assay type: functional, cell-based
A549 [12] = test: Induction of mitochondrial membrane potential depolarization in human A549 cells at 5 uM incubated for 24 hrs by JC-1 staining based flow cytometry; assay type: functional, cell-based
HeLa [13] = test: Induction of mitochondrial membrane potential depolarization in human HeLa cells at 1 to 5 uM incubated for 24 hrs by JC-1 staining based flow cytometry; assay type: functional, cell-based; conditions: dose 1-5 µM
HeLa [14] = test: Induction of apoptosis in human HeLa cells assessed as increase in cleaved PARP-1 expression at 5 uM measured for 48 hrs by Western blotting analysis; assay type: functional, cell-based
HeLa [15] = test: Induction of apoptosis in human HeLa cells assessed as reduction in MCL-1 expression at 5 uM measured for 48 hrs by Western blotting analysis; assay type: functional, cell-based
Astrocyte = test: Induction of apoptosis in human Astrocyte cells assessed as reduction in MCL-1 expression at 5 uM measured for 48 hrs by Western blotting analysis; assay type: functional, cell-based
[16] = Antiproliferative activity against human MCF-10A cells assessed as inhibition of cell growth incubated for 72 hrs by resazurin dye based assay; assay type: toxicity
[17] = Drug localization in cytosol of human MCF7 cells assessed as increase in fluorescence intensity at 8 uM by microscopic analysis; assay type: ADME, subcellular
Cell membrane = test: Induction of cell membrane disruption in human MCF7 cells at 8 uM measured after 90 mins; assay type: subcellular
[18] = Drug localization in cytosol of human MCF7 cells assessed as increase in fluorescence intensity at 8 uM measured after 15 mins by microscopic analysis; assay type: ADME, subcellular; conditions: 0.25 h

Chain of Choline kinase alpha (P35790 whole entry): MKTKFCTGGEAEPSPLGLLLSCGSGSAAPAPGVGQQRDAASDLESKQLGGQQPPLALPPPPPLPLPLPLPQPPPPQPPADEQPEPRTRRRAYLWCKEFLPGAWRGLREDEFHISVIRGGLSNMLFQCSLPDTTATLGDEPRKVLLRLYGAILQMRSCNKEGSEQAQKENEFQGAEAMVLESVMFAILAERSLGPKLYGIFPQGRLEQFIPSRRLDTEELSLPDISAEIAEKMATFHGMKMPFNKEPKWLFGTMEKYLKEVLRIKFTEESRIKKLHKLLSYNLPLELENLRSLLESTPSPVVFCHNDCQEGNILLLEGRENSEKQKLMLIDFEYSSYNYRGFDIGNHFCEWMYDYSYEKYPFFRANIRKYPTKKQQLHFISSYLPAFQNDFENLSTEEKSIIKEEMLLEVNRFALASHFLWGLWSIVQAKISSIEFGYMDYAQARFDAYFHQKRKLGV

SMILES | IC50 (Choline kinase alpha; read-out: IC50) [nM] | GI50 (A549 [1]) [nM] | GI50 (HeLa [2]) [nM] | GI50 (HT-29) [nM] | GI50 (MDA-MB-231) [nM] | GI50 (MCF7) [nM] | also measured
c1cc2c(N3CCCCCC3)cc[n+](Cc3ccc(SCCSc4ccc(C[n+]5ccc(N6CCCCCC6)c6ccsc65)cc4)cc3)c2s1 | 660 | 890 | 2800 | 2090 | 1460 | 1460 | GI50 at 72 h [3]: 2500 nM; Activity (A549 [4]): inactive; Activity (HeLa [5]): inactive; Activity (HeLa [6]): Active; Activity (HeLa [7]): Tde; Activity (HeLa [8]): Dose-Dependent Effect; Activity (HeLa [9]): Active; Activity (A549 [10]): inactive; Activity (HeLa [11]): Active; Activity (A549 [12]): Active; Activity (HeLa [13]): Active; Activity (HeLa [14]): Active; Activity (HeLa [15]): Active; Activity (Astrocyte): inactive
CN(c1ccccc1)c1cc[n+](Cc2ccc(SCCSc3ccc(C[n+]4ccc(N(C)c5ccccc5)c5ccccc54)cc3)cc2)c2ccccc12 | 1720 | 2020 | 9060 | 5980 | 1970 | 4730 | 
CN(c1ccc(Cl)cc1)c1cc[n+](Cc2ccc(SCCSc3ccc(C[n+]4ccc(N(C)c5ccc(Cl)cc5)c5ccsc54)cc3)cc2)c2sccc12 | 710 | 2660 | > 10000 | 6070 | 2950 | 2370 | 
[Br-].[Br-].c1cc2c(s1)c(N1CCCCCC1)cc[n+]2Cc1ccc(SSc2ccc(C[n+]3ccc(N4CCCCCC4)c4sccc43)cc2)cc1 |  | > 10000 | > 10000 | > 10000 |  |  | IC50 (Choline kinase alpha): Not Determined(Insoluble)
Clc1ccc2c(N3CCCC3)cc[n+](Cc3ccc(SSc4ccc(C[n+]5ccc(N6CCCC6)c6ccc(Cl)cc65)cc4)cc3)c2c1 | 1430 | > 10000 | > 10000 | > 10000 |  |  | 
c1cc2c(s1)c(N1CCCC1)cc[n+]2Cc1ccc(SCCSc2ccc(C[n+]3ccc(N4CCCC4)c4sccc43)cc2)cc1 | 1010 | 1370 | 9930 | 7480 | 2010 | 3110 | 
[Br-].[Br-].c1cc(SCCSc2ccc(C[n+]3ccc(N4CCCC4)cc3)cc2)ccc1C[n+]1ccc(N2CCCC2)cc1 |  | 1590 | 8840 | 9060 | 1750 |  | IC50 (Choline kinase alpha): Not Determined(Insoluble)
c1cc(SSc2ccc(C[n+]3ccc(N4CCCC4)cc3)cc2)ccc1C[n+]1ccc(N2CCCC2)cc1 | 360 | > 10000 | > 10000 | > 10000 |  |  | 
CN(c1ccc(Cl)cc1)c1cc[n+](Cc2ccc(SSc3ccc(C[n+]4ccc(N(C)c5ccc(Cl)cc5)c5ccccc54)cc3)cc2)c2ccccc12 | 850 | > 10000 | > 10000 | > 10000 |  |  | 
c1cc2c(s1)c(N1CCCCCC1)cc[n+]2Cc1ccc(SCCSc2ccc(C[n+]3ccc(N4CCCCCC4)c4sccc43)cc2)cc1 | 640 | 1290 | 4630 | 2410 | 1920 | 2120 | GI50 at 72 h [16]: 2500 nM; GI50 at 72 h [3]: 4400 nM; Activity (A549 [4]): inactive; Activity (HeLa [5]): inactive; Activity (HeLa [6]): Active; Activity (HeLa [7]): Tde; Activity (HeLa [8]): Dose-Dependent Effect; Activity (HeLa [9]): Active; Activity (A549 [10]): inactive; Activity (HeLa [11]): Active; Activity (A549 [12]): Active; Activity (HeLa [13]): Active; Activity (HeLa [14]): Active; Activity (HeLa [15]): Active; Activity (Astrocyte): inactive
CN(c1ccccc1)c1cc[n+](Cc2ccc(SCCSc3ccc(C[n+]4ccc(N(C)c5ccccc5)c5ccsc54)cc3)cc2)c2sccc12 | 1430 | 4050 | 5250 | 6800 | 6680 | 3940 | 
CN(c1ccc(Cl)cc1)c1cc[n+](Cc2ccc(SCCSc3ccc(C[n+]4ccc(N(C)c5ccc(Cl)cc5)c5ccccc54)cc3)cc2)c2ccccc12 | 1020 | 2900 | > 10000 | 8900 | 5870 | 3690 | 
Clc1ccc2c(N3CCCC3)cc[n+](Cc3ccc(SCCSc4ccc(C[n+]5ccc(N6CCCC6)c6ccc(Cl)cc65)cc4)cc3)c2c1 |  | 530 | 260 | 3000 |  | 1340 | GI50 at 72 h [16]: 2600 nM; GI50 at 72 h [3]: 5000 nM; Activity (A549 [4]): inactive; Activity (HeLa [5]): inactive; Activity (HeLa [6]): Active; Activity (HeLa [7]): Tde; Activity (HeLa [8]): Dose-Dependent Effect; Activity (HeLa [9]): Active; Activity (A549 [12]): Active; Activity (HeLa [13]): Active; Activity (HeLa [14]): Active; Activity (HeLa [15]): Active; Activity (Astrocyte): inactive
c1cc2c(N3CCCCC3)cc[n+](Cc3ccc(SCCSc4ccc(C[n+]5ccc(N6CCCCC6)c6ccsc65)cc4)cc3)c2s1 | 4400 | 920 | 2990 | 2160 | 1230 | 1210 | 
c1cc2c(s1)c(N1CCCC1)nc[n+]2Cc1ccc(SSc2ccc(C[n+]3cnc(N4CCCC4)c4sccc43)cc2)cc1 | 570 | > 10000 | > 10000 | > 10000 |  |  | 
CN(C)c1cc[n+](Cc2ccc(SCCSc3ccc(C[n+]4ccc(N(C)C)cc4)cc3)cc2)cc1.[Br-].[Br-] |  | 1380 | > 10000 | > 10000 | 4200 |  | IC50 (Choline kinase alpha): Not Determined(Insoluble)
CN(c1ccccc1)c1nc[n+](Cc2ccc(SCCSc3ccc(C[n+]4cnc(N(C)c5ccccc5)c5sccc54)cc3)cc2)c2ccsc12 | 2600 | 8200 | > 10000 | > 10000 | 8940 | 9120 | 
c1cc2c(s1)c(N1CCCC1)cc[n+]2Cc1ccc(SSc2ccc(C[n+]3ccc(N4CCCC4)c4sccc43)cc2)cc1 | 350 | 6160 | 2200 | > 10000 |  |  | 
c1cc2c(N3CCCCCC3)nc[n+](Cc3ccc(SSc4ccc(C[n+]5cnc(N6CCCCCC6)c6ccsc65)cc4)cc3)c2s1 | 320 | 4260 | 1230 | > 10000 |  |  | 
[Br-].[Br-].c1cc2c(s1)c(N1CCCC1)nc[n+]2Cc1ccc(SCCSc2ccc(C[n+]3cnc(N4CCCC4)c4sccc43)cc2)cc1 | 1350 | 440 | 10100 | 2630 | 1630 | 4340 | Drug uptake [17]: Active; Activity (Cell membrane): inactive; Drug uptake [18]: Active
c1cc2c(N3CCCCC3)nc[n+](Cc3ccc(SSc4ccc(C[n+]5cnc(N6CCCCC6)c6ccsc65)cc4)cc3)c2s1 | 520 | > 10000 | > 10000 | > 10000 |  |  | 
CN(C)c1cc[n+](Cc2ccc(SSc3ccc(C[n+]4ccc(N(C)C)cc4)cc3)cc2)cc1 | 640 | 2450 | 440 | > 10000 |  |  | 
